# Test results taken from patent US11951149B2, “Intranasal vasopressin treatment of social deficits in autism” (The Board of Trustees of the Leland Stanford Junior …, priority 2018, dated 2024).
# Tests used:
# children with ASD [1] = assay: Height and weight, change from baseline, 4-week trial; type: in vivo, human; conditions: after 4-week treatment
# Description: Commercially available injectable sterile AVP was used in this study. It was initially purchased from JHP Pharmaceuticals (Rochester, MI), which was subsequently acquired by Par Sterile Products (Chestnut Ridge, NY) in 2014. The placebo solution was prepared by Koshland Pharm (San Francisco, CA) and consisted of ingredients used in the active solution except the AVP compound. A pharmacist transferred 25 mL of AVP (20 International Units (IU)/mL) or placebo solutions into sterile amber glass bottles with metered (0.1 mL/per puff) nasal spray applicators to ensure that the AVP and placebo applicators were visually indistinguishable to the research team. […]
# Parents were trained in the clinic by research staff to administer the nasal spray to their child. […] Vital signs were monitored before, and 20 minutes after, initial single-dose nasal spray administration to monitor for acute, unanticipated reactions to AVP. […]
# Throughout the trial, safety and tolerability were assessed weekly using the following measurements: vital signs, 12-lead electrocardiogram, clinical chemistry labs, and height and weight. Side effects were evaluated with the DOTES (51), and modified to assess potential side effects that might be related to AVP such as hyponatremia/water intoxication. […]
# children with ASD [2] = assay: Adverse events assessed by the DOTES and OAS, 4-week trial; type: in vivo, human
# Description: (§1) Commercially available injectable sterile AVP was used in this study. It was initially purchased from JHP Pharmaceuticals (Rochester, MI), which was subsequently acquired by Par Sterile Products (Chestnut Ridge, NY) in 2014. The placebo solution was prepared by Koshland Pharm (San Francisco, CA) and consisted of ingredients used in the active solution except the AVP compound. A pharmacist transferred 25 mL of AVP (20 International Units (IU)/mL) or placebo solutions into sterile amber glass bottles with metered (0.1 mL/per puff) nasal spray applicators to ensure that the AVP and placebo applicators were visually indistinguishable to the research team. These applicators were coded and given to the Stanford Health Care's Investigational Drug Service (IDS) for refrigerated storage (2-8° C.) and subsequent dispensing. Following the first AVP dose (see below), the dose escalation regimen for all participants involved administration of 4 IU twice daily (or BID) of AVP during week 1 and 8 IU BID of AVP during week 2. Participants aged 6 to 9.5 years then received 12 IU BID of AVP during weeks 3 and 4, while participants aged 9.6 to 12.92 years received 16 IU BID of AVP during weeks 3 and 4.
# (§2) Parents were trained in the clinic by research staff to administer the nasal spray to their child. The first dose was administered in the ADDC under the direct supervision of the research team (with the first dose being 12 IU for participants aged 6 to 9.5 years and 16 IU for participants aged 9.6 to 12.92 years). Vital signs were monitored before, and 20 minutes after, initial single-dose nasal spray administration to monitor for acute, unanticipated reactions to AVP. Participants' parents then received two 25 mL nasal spray bottles containing either AVP or placebo for 4 weeks of at-home dispensing (as described above), for which they were responsible for their child's continued twice daily dosing. Parents were instructed to keep the bottles refrigerated with only brief room temperature excursions (i.e., for dosing). Participants underwent weekly safety/tolerability assessments in the clinic to monitor for adverse events. On completion of the 4-week treatment period, behavioral data, safety/tolerability data, and blood samples were again collected. After completion of the trial, participants randomized to the placebo group were invited to participate in an optional open-label 4-week AVP treatment phase to ensure that all children had the opportunity to receive AVP treatment.
# (§3) Throughout the trial, safety and tolerability were assessed weekly using the following measurements: vital signs, 12-lead electrocardiogram, clinical chemistry labs, and height and weight. Side effects were evaluated with the DOTES (51), and modified to assess potential side effects that might be related to AVP such as hyponatremia/water intoxication. Finally, based on animal studies showing that AVP can induce aggressive behavior under some circumstances (39, 40), the OAS was used to monitor for observable aggressive or violent behavior in this trial (52).
# One-way LS-GLMs were used to test the change from baseline between the AVP and placebo treatment groups following 4-week treatment for adverse events and safety measures. Fisher's exact Test was used to test for differences between treatment conditions for participant characteristics and concomitant medications. Suitable transformations were applied as needed.
# children with ASD [3] = assay: Vital signs, change from baseline, 4-week trial; type: in vivo, human; conditions: after 4-week treatment
# Description: as §1, §2, §3
# (§4) Treatment effect generalizability was evaluated using: 1) the RBS-R which measures a comprehensive list of repetitive and stereotyped behaviors (61); and 2) The Spence Children's Anxiety Scale which assesses the severity of trait anxiety symptoms broadly in line with DSM dimensions of anxiety disorder (62). Anxiety was selected as an outcome measure due to its significant comorbidity with ASD (63). Finally, safety and tolerability were evaluated using: 1) the DOTES (51); and 2) change from baseline in electrocardiogram, clinical chemistry labs, vital signs (i.e., blood pressure, heart rate, temperature), as well as height and weight.
# (§5) One-way LS-GLMs were used to test the change from baseline between the AVP and placebo treatment groups following 4-week treatment for adverse events and safety measures. […]
# children with ASD [4] = assay: 12-lead electrocardiogram, change from baseline, 4-week trial; type: in vivo, human; conditions: after 4-week treatment
# Description: as §1, §2, §3, §4, §5
# [5] = intranasal administration; cited from earlier work
# children with ASD [6] = assay: Clinical chemistry, change from baseline, 4-week trial; type: in vivo, human; conditions: after 4-week treatment
# Description: as §1, §2, §3
# Whole blood was drawn from the child's antecubital region by a pediatric phlebotomist using standard protocols at Lucile Packard Children's Hospital outpatient laboratory. A portion of the sample was collected per standard laboratory protocols and sent for clinical chemistry analysis. To evaluate AVP concentrations, whole blood was also collected into chilled EDTA-treated vacutainer tubes and immediately placed on wet ice. Samples were promptly centrifuged (1600×g at 4° C. for 15 min), the plasma fraction aliquoted into polypropylene tubes, and flash-frozen on dry ice. Whole blood was also collected into PAXgene RNA tubes (Qiagen, CA) and processed per manufacturer instruction to evaluate neuropeptide receptor gene expression [i.e., oxytocin receptor (OXTR) and AVPR1A]. All samples were stored at −80° C. until quantification. […]
# [7] = tested on: high-functioning adults with ASD; conditions: single dose intravenous, cited from earlier work
# ASD in children = assay: Intranasal administration of desmopressin in children with ASD; type: in vivo, human
# [8] = Dermatological, 4-week treatment, N = 17
# [9] = Gastrointestinal, 4-week treatment, N = 17
# [10] = General, 4-week treatment, N = 17
# [11] = HEENT, 4-week treatment, N = 17
# [12] = Neurological/Psychiatric, 4-week treatment, N = 17
# [13] = Renal, 4-week treatment, N = 17
# [14] = post hoc sub-test, not corrected for multiple comparisons
smiles,measurement,setting,value
"NC(=O)CC[C@@H]1NC(=O)[C@H](Cc2ccccc2)NC(=O)[C@H](Cc2ccc(O)cc2)NC(=O)[C@@H](N)CSSC[C@@H](C(=O)N2CCC[C@H]2C(=O)N[C@@H](CCCN=C(N)N)C(=O)NCC(N)=O)NC(=O)[C@H](CC(N)=O)NC1=O [AVP, arginine vasopressin]",Change from baseline LSM +/− SE: Height,children with ASD [1],0.8 ± 0.23 centimeters
same,Changes from baseline in physiological measures,children with ASD [1],No significant changes from baseline
same,Tolerability,children with ASD [2]; 4-week intranasal treatment,well tolerated with minimal adverse effects
same,"Adverse event rates compared to placebo-treated group (DOTES, OAS)","children with ASD [2]; 4-week treatment, parent ratings",no significant differences
same,Adverse event: Bug bite,children with ASD [2]; [8],1 (6%) counts and percentages
same,Adverse event: Skin burn,children with ASD [2]; [8],0 (0%) counts and percentages
same,Adverse event: Skin rash,children with ASD [2]; [8],1 (6%) counts and percentages
same,Adverse event: Constipation,children with ASD [2]; [9],1 (6%) counts and percentages
same,Adverse event: Decreased appetite,children with ASD [2]; [9],4 (24%) counts and percentages
same,Adverse event: Diarrhea,children with ASD [2]; [9],0 (0%) counts and percentages
same,Adverse event: Nausea/vomiting,children with ASD [2]; [9],2 (12%) counts and percentages
same,Adverse event: Body ache,children with ASD [2]; [10],1 (6%) counts and percentages
same,Adverse event: Cough,children with ASD [2]; [10],1 (6%) counts and percentages
same,Adverse event: Fever,children with ASD [2]; [10],2 (12%) counts and percentages
same,Adverse event: Blurred vision,children with ASD [2]; [11],1 (6%) counts and percentages
same,Adverse event: Cold sore,children with ASD [2]; [11],0 (0%) counts and percentages
same,Adverse event: Dry mouth,children with ASD [2]; [11],1 (6%) counts and percentages
same,Adverse event: Ear infection,children with ASD [2]; [11],0 (0%) counts and percentages
same,Adverse event: Nasal congestion,children with ASD [2]; [11],3 (18%) counts and percentages
same,Adverse event: Runny nose,children with ASD [2]; [11],0 (0%) counts and percentages
same,Adverse event: Sore throat,children with ASD [2]; [11],0 (0%) counts and percentages
same,Adverse event: Aggression,children with ASD [2]; [12],1 (6%) counts and percentages
same,Adverse event: Akathisia,children with ASD [2]; [12],1 (6%) counts and percentages
same,Adverse event: Decreased motor activity,children with ASD [2]; [12],1 (6%) counts and percentages
same,Adverse event: Depressive affect,children with ASD [2]; [12],2 (12%) counts and percentages
same,Adverse event: Dizziness,children with ASD [2]; [12],0 (0%) counts and percentages
same,Adverse event: Drowsiness,children with ASD [2]; [12],1 (6%) counts and percentages
same,Adverse event: Excitement/agitation,children with ASD [2]; [12],4 (24%) counts and percentages
same,Adverse event: Head banging,children with ASD [2]; [12],1 (7%) counts and percentages
same,Adverse event: Headache,children with ASD [2]; [12],2 (12%) counts and percentages
same,Adverse event: Increased motor activity,children with ASD [2]; [12],4 (24%) counts and percentages
same,Adverse event: Insomnia,children with ASD [2]; [12],4 (24%) counts and percentages
same,Adverse event: Lethargy/tiredness,children with ASD [2]; [12],0 (0%) counts and percentages
same,Adverse event: Bed wetting,children with ASD [2]; [13],1 (6%) counts and percentages
same,Adverse event: Increased urination,children with ASD [2]; [13],1 (6%) counts and percentages
same,Change from baseline LSM +/− SE: BP Change Diastolic (Standin-Sitting),children with ASD [3],−3.1 ± 2.65
same,Change from baseline LSM +/− SE: BP Change Systolic (Standing-Sitting),children with ASD [3],−3.6 ± 2.76
same,"Change from baseline LSM +/− SE: BP, Diastolic, Sitting",children with ASD [3],3.2 ± 2.09 mmHg
same,"Change from baseline LSM +/− SE: BP, Diastolic, Standing",children with ASD [3],0.1 ± 2.31 mmHg
same,"Change from baseline LSM +/− SE: BP, Systolic, Sitting",children with ASD [3],5.5 ± 2.53 mmHg
same,"Change from baseline LSM +/− SE: BP, Systolic, Standing",children with ASD [3],1.9 ± 2.38 mmHg
same,Change from baseline LSM +/− SE: Pulse change,children with ASD [3],2.1 ± 2.75 beats per minute
same,Change from baseline LSM +/− SE: Pulse sitting,children with ASD [3],1.9 ± 3.87 beats per minute
same,Change from baseline LSM +/− SE: Pulse standing,children with ASD [3],4.0 ± 3.57 beats per minute
same,Change from baseline LSM +/− SE: Temperature,children with ASD [3],0.2 ± 0.17 ° F.
same,Changes from baseline in vital signs,children with ASD [3],No significant changes from baseline
same,Changes from baseline in 12-lead electrocardiogram,children with ASD [4],No significant changes from baseline
same,Change from baseline LSM +/− SE: Bazett’s Corrected QT Interval,children with ASD [4]; electrocardiogram,-1.9 ± 5.07 ms
same,Change from baseline LSM +/− SE: Heart Rate,children with ASD [4]; electrocardiogram,−2.5 ± 3.75 bpm
same,Change from baseline LSM +/− SE: P Duration,children with ASD [4]; electrocardiogram,-2.6 ± 5.76 ms
same,Change from baseline LSM +/− SE: PR Intervals,children with ASD [4]; electrocardiogram,-4.6 ± 6.40 ms
same,Change from baseline LSM +/− SE: QRS Interval,children with ASD [4]; electrocardiogram,0.4 ± 1.55 ms
same,Change from baseline LSM +/− SE: QT Interval,children with ASD [4]; electrocardiogram,3.5 ± 5.53 ms
same,Cerebrospinal fluid (CSF) concentrations of measured AVP,[5],elevated
same,Change from baseline LSM +/− SE: Anion Gap,children with ASD [6],-0.65 ± 0.78 mmol/L
same,Change from baseline LSM +/− SE: CO2,children with ASD [6],-0.12 ± 0.57 mmol/L
same,Change from baseline LSM +/− SE: Calcium,children with ASD [6],0.047 ± 0.07 mg/dL
same,Change from baseline LSM +/− SE: Chloride,children with ASD [6],1.0 ± 0.56 mmol/L
same,Change from baseline LSM +/− SE: Creatine,children with ASD [6],-0.017 ± 0.03 mg/dL
same,Change from baseline LSM +/− SE: Glucose,children with ASD [6],2.2 ± 4.41 mg/dL
same,Change from baseline LSM +/− SE: Osmolality (Serum),children with ASD [6],0.18 ± 1.01 mOsm/kg
same,Change from baseline LSM +/− SE: Osmolality (Urine),children with ASD [6],8.5 ± 82.6 mOsm/kg
same,Change from baseline LSM +/− SE: Potassium,children with ASD [6],0.15 ± 0.11 mmol/L
same,Change from baseline LSM +/− SE: Sodium,children with ASD [6],0.24 ± 0.63 mmol/L
same,Change from baseline LSM +/− SE: Urea Nitrogen,children with ASD [6],-1.3 ± 0.78 mg/dL
same,Changes from baseline in clinical chemistry,children with ASD [6],No significant changes from baseline
CN(C)CCn1cc(C(=O)N2CCC3(CC2)OCc2ccccc23)c2ccc(Cl)cc21 [RG7713],Improvements on overall composite tests,[7],non-significant
same,Ability to detect lust on an affective speech recognition task,[7]; [14],reduced
same,Biological motion orienting preference,[7]; [14],increased
"NC(=O)CC[C@@H]1NC(=O)[C@H](Cc2ccccc2)NC(=O)[C@H](Cc2ccc(O)cc2)NC(=O)CCSSC[C@@H](C(=O)N2CCC[C@H]2C(=O)N[C@H](CCCN=C(N)N)C(=O)NCC(N)=O)NC(=O)[C@H](CC(N)=O)NC1=O [desmopressin, 1-deamino-8-D-arginine-vasopressin]",Treatment of ASD in children,ASD in children,not found to effectively treat ASD
